Data reported in US8263526B2, “Compositions of keratin hydrolysate and microbes for pest control applications” (priority 2006, dated 2012).
Like-named read-outs stand apart in the source and are kept apart here.

Tests used:
Format in all cases: cell-based
[1] = system: blastospores of Paecilomyces fumosoroseus ARSEF 3581; assay: Conidia production assay on water agar in the dark; settings: 2 weeks in the dark
Procedure: For the conidia production assay, 100 ul of the blastospore suspension was spread onto WA plates (Water Agar: 20 g/L water.) and incubated 2 weeks in the dark. Three plates were used for each treatment. The drop was spread with a sterile plastic spreader and incubated at 23° C. in the dark for 2 weeks. After two weeks, 5 ml of sterile water was added to each plate, and a sterile loop was used to release the conidia from the fungal growth. The spore suspension was drawn up with a pipet and the volume measured. The conidia concentration was measured using a hemacytometer. Our previous determination of the blastospore concentration in the suspension applied to the […] plates was used to calculate conidia production/blastospore.

[2] = system: blastospores of Paecilomyces fumosoroseus ARSEF 3581; assay: Viability assay, CFU spread plate after 1 hour exposure to surfactant; settings: in words
Procedure: (§1) Blastospore suspensions (˜1×10^8 blastospores/ml) were prepared by adding 1.3 g of the dried blastospores of P. fumosoroseus formulate to 100 ml sterile deionized water. The spore suspension was stirred for 30 minutes, and then allowed to stand 1 minute to allow the diatomaceous earth to settle. Without disturbing the diatomaceous earth, 30 ml of the spore suspension was removed and transferred to a sterile bottle. The blastospore concentration of the suspension was measured using a hemacytometer.
For these studies, 1 ml of the previously described blastospore suspension was added to 49 ml of the foaming agents and held for 1 hour at room temperature. After the one hour exposure period, colony forming units (cfu) were determined for blastospore suspensions using standard spread plating techniques. Appropriate dilutions of blastospore suspensions were spread on SDMA (Sabouraud dextrose maltose agar) plates, 10 g Bacto peptone, 20 g Difco dextrose, 20 g Sigma maltose, and 15 g Bacto agar per 1 L water. Three plates were used for each dilution. Plates were incubated at 28° C. for 2-3 days and CFUs counted.

[3] = system: blastospores of Paecilomyces fumosoroseus ARSEF 3581; assay: % germination assay (6-hr) of blastospores in surfactant solutions
Procedure: as §1
A one ml aliquot of the previously described blastospore suspension was added to 49 ml of the foaming agents in a 250 ml baffled Erlenmeyer flask. The blastospore suspensions were incubated in a rotary shaker incubator (Innova 4000, New Brunswick) at 300 RPM and 28° C. for 6 hours. Blastospore germination was measured by microscopic observation of the germ tube formation. Four slides were prepared from the incubated blastospore suspension using separate pipets. Germ tube formation was measured for 100 blastospores on each slide. A total of 400 blastospores were counted from each flask.

Triton x-100
conidia production (conidia/blastospore) ([1]; surfactant 0.5% (w/w)): 95 conidia/blastospore
conidia production (conidia/blastospore) ([1]; surfactant 1.0% (w/w)): 57 conidia/blastospore
conidia production (conidia/blastospore) ([1]; surfactant 2.0% (w/w)): 27 conidia/blastospore
cfu formation relative to the water control [2]: comparable or better cfu formation than the water control
germination of blastospores relative to the water-only control ([3]; 6-hr germination assay, in words): strongly inhibited

CCCCCCCCCCCCCCCC[N+](C)(C)C.[Br-] [hexadecyl trimethylammonium Br, hexadecyl trimethylammonium bromide]
% viability 6-hr germination ([3]; surfactant 0.5% (w/w), 6 hours, 28° C.): 0.0%

sodium lauryl ether sulfate (2-mole) [Na Lauryl ether sulfate (2-mole)]
% viability 6-hr germination [3]: 0.0%

sodium alpha olefin sulfonate [Na alpha olefin sulfonate]
% viability 6-hr germination [3]: 0.0%
